# Read-outs that look alike come from different tables or passages of the source.
# Tests used:
# [1] = system: MesSa human sarcoma xenograft; format: in vivo
# Description: The xenograft model used the MesSa cell line (ATCC: CRL-1976 human sarcoma cells) (in vitro cell passage number 67 from frozen stock (number 65) on day 5). Tumour cells (1×10^7) (trypsinated) (100 μL in 100 μL matrigel) were injected subcutaneously (s.c.) into the right flank of each mouse, with one node per mouse. The time from cell dilution to the end of injection was 24 minutes. Each mouse was anaesthetised with Hypnorm/Dormicum subcutaneously (s.c.) or isofluran (by inhalation) when the tumour cells were injected.
# Four groups, each of 12 mice, were treated with vehicle, belinostat only, trabectedin only, or both belinostat and trabectedin, for three weeks, as summarised in the following table. On days that belinostat was administered, it was administered twice, with a 3 hour interval. On days that both belinostat and trabectedin were administered, the trabectedin was administered between the two belinostat administrations.
# Mice were enrolled in treatment groups following confirmation of xenograft take. Both tumour diameter and body weight were measured on days: 0, 3, 7, 10, 14, 17, and 21. Animals were sacrificed (by cervical dislocation) on day 21. Tumour weight was measured on day 21 (following sacrifice).
# “T/C%” denotes tumour weight following treatment as a percent of control, using Mann-Whitney statistical analysis. The results (median tumour volume) are also illustrated in FIG. 4.
# “T/C%” denotes tumour weight following treatment as a percent of control, using Mann-Whitney statistical analysis. The results (median tumour weight) are also illustrated in FIG. 5.
# [2] = system: Ovarian Cancer Cells (A2780); experiment: Clonogenic assay (continuous co-incubation), ovarian cancer cells A2780; format: cell-based
# Description: (§1) The effects of the combination of belinostat and trabectedin were studied in clonogenic assays. The clonogenic assay assesses anti-clonogenic activity of tumour cells. The “target” in clonogenic assay is all biochemical and molecular elements or alterations characteristic of tumour cells rather than specific single targets.
# (§2) Cells were grown for at least 1 week after thawing in standard media to obtain a sub-confluent culture. The 3.3% agar was boiled for at least 60 minutes in a water bath on an electrical heating plate (30 mL PBS+990 mg Bacto agar). The 90 mL growth medium (RPMI-1640+10% FCS) was heated in a water bath at 37° C. Cells were centrifuged in 50 mL centrifuge tubes at 1200 rpm for 5 minutes at room temperature.
# (§3) Drug (belinostat or trabectedin) was dissolved and diluted with growth medium or DMSO to a concentration of […] the final concentration.
# (§4) Cells were suspended in 7 mL growth medium using a 1 mL syringe and an 18 gauge needle by pumping the solution up and down 15 times. Cells were stained with Nigrosin (0.3 mL cells+0.3 mL 0.1% Nigrosin in PBS), and counted after 8 minutes using a Fuchs-Rosenthal counting chamber.
# (§5) Then, 10 mL agar and 90 mL growth medium was mixed (0.33%) and heated in a water bath at 37° C. 0.35 mL cell suspension was transferred to 10 mL conical centrifuge tubes using a dispenser. 35 μL drug (belinostat or trabectedin) was added. 3.15 mL agar/medium was added to each tube (maximum 8 tubes at the time).
# (§6) For each belinostat combination tested series of 7 titrations corresponding to approximately 30, 40, 50, 60, 70, 80, 90% inhibition was tested as mono-therapy and in combination.
# (§7) The Combination Index (CI) provides a measure of the interaction: A CI value of less than 1 indicates synergy, a CI value of 1 indicates an additive effect, and a CI value of greater than 1 indicates antagonism.
# Sarcoma Cells (MesSa) = experiment: Clonogenic assay (continuous co-incubation), sarcoma cells MesSa; format: cell-based, human
# Description: as §1, §2, §3, §4, §5, §6, §7
# [3] = system: Osteocarcinoma Cells (Saos-2); experiment: Clonogenic assay (continuous co-incubation), osteocarcinoma cells Saos-2; format: cell-based
# Description: as §1, §2, §3, §4, §5, §6, §7
# [4] = physiological pH; cited from earlier work
# soft-tissue sarcoma = details: patients with soft-tissue sarcoma, pivotal clinical trial; cited from earlier work
# [5] = day 0, belinostat 40 mg/kg i.p. twice daily, days 0-4, 7-11, 14-18
# [6] = day 4, belinostat 40 mg/kg i.p. twice daily, days 0-4, 7-11, 14-18
# [7] = day 7, belinostat 40 mg/kg i.p. twice daily, days 0-4, 7-11, 14-18
# [8] = day 10, belinostat 40 mg/kg i.p. twice daily, days 0-4, 7-11, 14-18
# [9] = day 14, belinostat 40 mg/kg i.p. twice daily, days 0-4, 7-11, 14-18
# [10] = day 17, belinostat 40 mg/kg i.p. twice daily, days 0-4, 7-11, 14-18
# [11] = day 0, trabectedin 0.1 mg/kg i.v. once, days 0, 3, 7, 10
# [12] = day 4, trabectedin 0.1 mg/kg i.v. once, days 0, 3, 7, 10
# [13] = day 7, trabectedin 0.1 mg/kg i.v. once, days 0, 3, 7, 10
# [14] = day 10, trabectedin 0.1 mg/kg i.v. once, days 0, 3, 7, 10
# [15] = day 14, trabectedin 0.1 mg/kg i.v. once, days 0, 3, 7, 10
# [16] = day 17, trabectedin 0.1 mg/kg i.v. once, days 0, 3, 7, 10
smiles,measurement,setting,value
"O=C(/C=C/c1cccc(S(=O)(=O)Nc2ccccc2)c1)NO [Belinostat, (E)-N-hydroxy-3-(3-phenylsulfamoyl-phenyl)-acrylamide]",tumour growth delay (in words),"[1]; belinostat 40 mg/kg, twice daily, i.p., 5 days per week for 3 weeks",some but not significant tumour growth delay
same,"Median Tumour Volume, Belinostat Only",[1]; [5],65 mm^3
same,"T/C % (tumour volume), Belinostat Only",[1]; [5],75%
same,"Median Tumour Volume, Belinostat Only",[1]; [6],71 mm^3
same,"T/C % (tumour volume), Belinostat Only",[1]; [6],81%
same,"Median Tumour Volume, Belinostat Only",[1]; [7],76 mm^3
same,"T/C % (tumour volume), Belinostat Only",[1]; [7],67%
same,"Median Tumour Volume, Belinostat Only",[1]; [8],87 mm^3
same,"T/C % (tumour volume), Belinostat Only",[1]; [8],39%
same,"Median Tumour Volume, Belinostat Only",[1]; [9],144 mm^3
same,"T/C % (tumour volume), Belinostat Only",[1]; [9],59%
same,"Median Tumour Volume, Belinostat Only",[1]; [10],295 mm^3
same,"T/C % (tumour volume), Belinostat Only",[1]; [10],66%
same,"Median Tumour Volume, Belinostat Only","[1]; day 21, belinostat 40 mg/kg i.p. twice daily, days 0-4, 7-11, 14-18",449 mm^3
same,"T/C % (tumour volume), Belinostat Only","[1]; day 21, belinostat 40 mg/kg i.p. twice daily, days 0-4, 7-11, 14-18, p=0.10",67%
same,"T/C % (tumour weight), Belinostat Alone","[1]; day 21, belinostat 40 mg/kg i.p. twice daily, days 0-4, 7-11, 14-18, p=0.180",77%
same,reduction in growth (tumour volume),"[1]; day 21, belinostat 40 mg/kg, twice daily, i.p., 5 days per week for 3 weeks, p=0.10",33%
same,reduction in growth (tumour weight),"[1]; day 21, belinostat 40 mg/kg, twice daily, i.p., 5 days per week for 3 weeks, p=0.180",23%
same,Belinostat Alone (% survival),[2]; belinostat 0.04 μM,97.74%
same,Belinostat Alone (% survival),[2]; belinostat 0.36 μM,82.64%
same,Belinostat Alone (% survival),[2]; belinostat 0.47 μM,65.30%
same,Belinostat Alone (% survival),[2]; belinostat 0.56 μM,31.60%
same,Belinostat Alone (% survival),[2]; belinostat 0.63 μM,15.82%
same,Belinostat Alone (% survival),[2]; belinostat 0.68 μM,7.19%
same,Belinostat Alone (% survival),[2]; belinostat 0.73 μM,2.42%
same,Belinostat Alone (% survival),Sarcoma Cells (MesSa); belinostat 0.27 μM,88.48%
same,Belinostat Alone (% survival),Sarcoma Cells (MesSa); belinostat 0.37 μM,68.82%
same,Belinostat Alone (% survival),Sarcoma Cells (MesSa); belinostat 0.48 μM,57.06%
same,Belinostat Alone (% survival),Sarcoma Cells (MesSa); belinostat 0.57 μM,42.92%
same,Belinostat Alone (% survival),Sarcoma Cells (MesSa); belinostat 0.66 μM,37.33%
same,Belinostat Alone (% survival),Sarcoma Cells (MesSa); belinostat 0.80 μM,17.90%
same,Belinostat Alone (% survival),Sarcoma Cells (MesSa); belinostat 1.0 μM,2.75%
same,Belinostat Alone (% survival),[3]; belinostat 0.065 μM,86.96%
same,Belinostat Alone (% survival),[3]; belinostat 0.10 μM,66.47%
same,Belinostat Alone (% survival),[3]; belinostat 0.115 μM,69.29%
same,Belinostat Alone (% survival),[3]; belinostat 0.13 μM,74.52%
same,Belinostat Alone (% survival),[3]; belinostat 0.145 μM,45.50%
same,Belinostat Alone (% survival),[3]; belinostat 0.19 μM,38.34%
same,Belinostat Alone (% survival),[3]; belinostat 0.225 μM,30.59%
same,solubility in water,[4],sparingly soluble
"COc1cc2c(cc1O)CCN[C@]21CS[C@@H]2c3c(OC(C)=O)c(C)c4c(c3[C@H](COC1=O)N1[C@@H]2[C@H]2c3c(cc(C)c(OC)c3O)C[C@@H]([C@@H]1O)N2C)OCO4 (relative stereo) [Trabectedin, spiro[6,16-(epithiopropanoxymethano)-7,13-imino-12H-1,3-dioxolo[7,8]isoquino[3,2-b][3]benzazocine-20,1′(2′H)-isoquinolin]-19-one, 5-(acetyloxy)-3′,4′,6,6a,7,13,14,16-octahydro-6′,8,14-trihydroxy-7′,9-dimethoxy-4,10,23-trimethyl-, [6R-(6α,6aβ,7β,13β,14β,16α,20R*)]]","Median Tumour Volume, Trabectedin Only",[1]; [11],87 mm^3
same,"T/C % (tumour volume), Trabectedin Only",[1]; [11],100%
same,"Median Tumour Volume, Trabectedin Only",[1]; [12],87 mm^3
same,"T/C % (tumour volume), Trabectedin Only",[1]; [12],100%
same,"Median Tumour Volume, Trabectedin Only",[1]; [13],57 mm^3
same,"T/C % (tumour volume), Trabectedin Only",[1]; [13],50%
same,"Median Tumour Volume, Trabectedin Only",[1]; [14],65 mm^3
same,"T/C % (tumour volume), Trabectedin Only",[1]; [14],29%
same,"Median Tumour Volume, Trabectedin Only",[1]; [15],76 mm^3
same,"T/C % (tumour volume), Trabectedin Only",[1]; [15],31%
same,"Median Tumour Volume, Trabectedin Only",[1]; [16],134 mm^3
same,"T/C % (tumour volume), Trabectedin Only",[1]; [16],30%
same,"Median Tumour Volume, Trabectedin Only","[1]; day 21, trabectedin 0.1 mg/kg i.v. once, days 0, 3, 7, 10",167 mm^3
same,"T/C % (tumour volume), Trabectedin Only","[1]; day 21, trabectedin 0.1 mg/kg i.v. once, days 0, 3, 7, 10, p=0.01",25%
same,"T/C % (tumour weight), Trabectedin Alone","[1]; day 21, trabectedin 0.1 mg/kg i.v. once, days 0, 3, 7, 10, p=0.027",30%
same,reduction in growth (tumour volume),"[1]; day 21, trabectedin 0.1 mg/kg, once daily, i.v., days 0, 3, 7, 10, p=0.01",75%
same,reduction in growth (tumour weight),"[1]; day 21, trabectedin 0.1 mg/kg, once daily, i.v., days 0, 3, 7, 10, p=0.027",70%
same,tumour growth delay (in words),"[1]; trabectedin 0.1 mg/kg, once daily, i.v., days 0, 3, 7, 10 of a 3 week cycle",significant tumour growth delay
same,Trabectedin Alone (% survival),[2]; trabectedin 0.66 nM,75.33%
same,Trabectedin Alone (% survival),[2]; trabectedin 0.73 nM,62.12%
same,Trabectedin Alone (% survival),[2]; trabectedin 0.80 nM,49.62%
same,Trabectedin Alone (% survival),[2]; trabectedin 0.84 nM,44.20%
same,Trabectedin Alone (% survival),[2]; trabectedin 0.88 nM,44.06%
same,Trabectedin Alone (% survival),[2]; trabectedin 0.92 nM,36.20%
same,Trabectedin Alone (% survival),[2]; trabectedin 0.96 nM,28.69%
same,Trabectedin Alone (% survival),Sarcoma Cells (MesSa); trabectedin 0.20 nM,86.17%
same,Trabectedin Alone (% survival),Sarcoma Cells (MesSa); trabectedin 0.46 nM,87.51%
same,Trabectedin Alone (% survival),Sarcoma Cells (MesSa); trabectedin 0.64 nM,81.84%
same,Trabectedin Alone (% survival),Sarcoma Cells (MesSa); trabectedin 0.75 nM,67.10%
same,Trabectedin Alone (% survival),Sarcoma Cells (MesSa); trabectedin 0.86 nM,42.38%
same,Trabectedin Alone (% survival),Sarcoma Cells (MesSa); trabectedin 0.97 nM,33.98%
same,Trabectedin Alone (% survival),Sarcoma Cells (MesSa); trabectedin 1.1 nM,26.55%
same,time-to-tumour-progression (TTP),soft-tissue sarcoma,3.9 months
same,Trabectedin Alone (% survival),[3]; trabectedin 0.005 nM,79.99%
same,Trabectedin Alone (% survival),[3]; trabectedin 0.010 nM,77.74%
same,Trabectedin Alone (% survival),[3]; trabectedin 0.09 nM,74.94%
same,Trabectedin Alone (% survival),[3]; trabectedin 0.13 nM,69.14%
same,Trabectedin Alone (% survival),[3]; trabectedin 0.17 nM,60.61%
same,Trabectedin Alone (% survival),[3]; trabectedin 0.21 nM,65.08%
same,Trabectedin Alone (% survival),[3]; trabectedin 0.26 nM,49.99%

# — US20150231134A1, “Combination Therapy using Belinostat and Trabectedin” (Onxeo DK, Branch of Onxeo S.A., France, priority 2012, published 2015)
